Source: PMC5375023 (Neurochemistry international, 2017)
Where two headings read alike, the source gives them in different places.

What was measured:
[1] = target: T1, human S1R (Homo sapiens, UniProt Q99720); conditions: ref Lee et al., 2008, cited from earlier work
[2] = system: BDNF mRNA in CCF-STTG1 cells; test: qPCR of BDNF steady-state mRNA; assay type: cell-based, human; conditions: 3 hr
[3] = system: CCF-STTG1 cells; test: BDNF secretion by in situ ELISA, CCF-STTG1; conditions: for BDNF secretion from CCF-STTG1 cells, compound alone: 72 hrs treatment
[4] = system: U87MG cells; test: BDNF secretion by in situ ELISA, U87MG; conditions: 72 hrs treatment
[5] = system: ischemic stroke; conditions: acute low dose 0.05 mg/kg, s.c., rats; ref Schetz et al., 2007; cited from earlier work
[6] = target: human S2R (Homo sapiens, UniProt Q5BJF2); test: Competition binding with [3H]DTG at S2R in untransfected MCF-7 cells; conditions: for IC50: read-out: IC50 at S2R; for IC50 / Ki: MCF-7, ± SEM; for Ki: read-out: Ki at S2R
[7] = target: T1, human S1R; test: Competition binding with [3H]-
[8] = system: EP2R; conditions: 10 μM; ref af Forselles et al., 2011; cited from earlier work
[9] = system: BV-2 cells; test: BDNF secretion by in situ ELISA, BV-2; assay type: cell-based, murine; conditions: 10 μM
[10] = 15 nM, Fractional Occupancy = [ligand]/([ligand]+Ki)

human S2R, sequence (Q5BJF2 whole entry): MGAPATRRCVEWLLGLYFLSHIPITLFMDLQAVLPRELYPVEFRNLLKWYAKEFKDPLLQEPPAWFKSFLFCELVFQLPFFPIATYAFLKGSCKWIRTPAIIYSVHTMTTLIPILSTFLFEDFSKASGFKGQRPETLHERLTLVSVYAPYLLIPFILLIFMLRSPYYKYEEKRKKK
T1 sequence (Q99720 whole entry): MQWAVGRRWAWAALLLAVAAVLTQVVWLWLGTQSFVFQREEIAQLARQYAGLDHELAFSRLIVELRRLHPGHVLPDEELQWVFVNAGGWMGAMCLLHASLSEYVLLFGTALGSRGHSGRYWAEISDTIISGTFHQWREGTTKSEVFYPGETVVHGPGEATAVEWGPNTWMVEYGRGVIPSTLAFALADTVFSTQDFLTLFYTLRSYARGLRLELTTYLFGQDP

Compound: O=C(O)CCC(=O)c1ccc(F)cc1 [haloperidol metabolite III, 3-(4-Fluorobenzoyl)propionic acid]
- affinity for the S1R, in words [1]: essentially no detectable affinity

Compound: C=C[C@@]1(C)CC(=O)[C@]2(O)[C@@]3(C)[C@@H](O)CCC(C)(C)[C@@H]3[C@H](O)[C@H](OC(C)=O)[C@@]2(C)O1 [Forskolin]
- increase in BDNF mRNA levels ([2]; 100 μM forskolin + 100 μM IBMX, normalized to vehicle): > 3 fold

Compound: O=C(CCCN1CCC(O)(c2ccc(Cl)cc2)CC1)c1ccc(F)cc1 [haloperidol, Haloperidol]
- BDNF secretion from CCF-STTG1 cells, compound alone [3]: but not haloperidol, facilitated BDNF secretion
- BDNF secretion from U87MG cells, compound alone [4]: but not haloperidol, facilitated BDNF secretion
- protection against ischemic stroke [5]: protected rats against an ischemic stroke

Compound: OC(CCCN1CCC(O)(c2ccc(Cl)cc2)CC1)c1ccc(F)cc1 (racemic) [reduced haloperidol, (±)-4-(4-Chlorophenyl)-α-(4-fluorophenyl)-4-hydroxy-1-piperidinebutanol]
- BDNF secretion from CCF-STTG1 cells, compound alone [3]: facilitated BDNF secretion
- BDNF secretion from U87MG cells, compound alone [4]: facilitated BDNF secretion
- effect on BDNF mRNA levels ([2]; 10 μM): no effect on BDNF mRNA levels

Compound: CN1CCN(CCc2ccc(Cl)c(Cl)c2)CC1 [BD1063]
- BDNF secretion from CCF-STTG1 cells, compound alone [3]: no effect on its own
- effect on PGE2-stimulated BDNF response mediated by EP2R ([3]; S1R-selective dose of BD1063): does not modify the PGE2 stimulated response
- effect on BDNF secretion produced by S1R agonists 4-PPBP and (+)-SKF10047 ([3]; antagonist 15 nM): significantly reduced BDNF secretion
- effect on BDNF secretion produced by haloperidol metabolites I and II ([3]; antagonist BD1063 co-applied): significantly diminished BDNF secretion
- calculated S2R occupancy [6, 10]: 7%
- IC50 ([6]; [3H]-DTG): 208 ± 30 nM
- Ki ([6]; [3H]-DTG): 194 ± 28 nM
- expected S1R occupancy ([7]; 2 nM): 27%
- calculated S1R occupancy [7, 10]: 74%
- Ki(S2R)/Ki(S1R) selectivity ([7]; S1R over S2R): 37 fold
- IC50 ([7]; read-out: IC50 at S1R, [3H]-(+)-pentazocine, MCF-7-S1R, ± SEM): 6.5 ± 0.87 nM
- Ki ([7]; read-out: Ki at S1R, [3H]-(+)-pentazocine, MCF-7-S1R, ± SEM): 5.3 ± 0.71 nM

Compound: CCCCC[C@H](O)/C=C/[C@H]1[C@H](O)CC(=O)[C@@H]1C/C=C\CCCC(=O)O [PGE2, Prostaglandin E2]
- secreted BDNF, maximal stimulation ([3]; 10 μM, ± SEM, n = 6 experiments, baseline 75.4 ± 6.9): 128.6 ± 12.8 pg/mL
- BDNF secretion from CCF-STTG1 cells, compound alone [3]: secreted BDNF in a concentration-dependent manner
- displacement of specifically bound radioligand from S2R ([6]; 10 μM, [3H]-DTG): unable to displace
- displacement of specifically bound radioligand from S1R ([7]; 10 μM, [3H]-(+)-pentazocine): unable to displace

Compound: COc1ccc2cc(OCC3(C(=O)O)CN(C(=O)c4ccc(F)cc4)C3)ccc2c1 [PF-04418948]
- BDNF secretion from CCF-STTG1 cells, compound alone [3]: no effect by itself
- effect on PGE2-stimulated BDNF secretion ([3]; antagonist 10 μM vs PGE2): blocked the stimulatory effect of PGE2
- EP2 receptor occupancy [8]: 99.9%

Compound: CCCN(CCC)CCc1ccc(OC)c(OCCc2ccccc2)c1 [NE100]
- IC50 ([6]; [3H]-DTG): 46 ± 6.4 nM
- Ki ([6]; [3H]-DTG): 43 ± 6 nM

Compound: (+)-SKF10047
- BDNF secretion from CCF-STTG1 cells, compound alone [3]: facilitated BDNF secretion

Compound: CC(C)Cn1c(=O)n(C)c(=O)c2[nH]cnc21 [IBMX]
- effect on BDNF mRNA levels ([2]; 100 μM): no effect on BDNF mRNA levels

Compound: CN1CCN(C2=Nc3cc(Cl)ccc3Nc3ccccc32)CC1 [clozapine]
- affinity for the S1R, in words [1]: essentially no affinity

Compound: c1ccc(CCCCN2CCC(c3ccccc3)CC2)cc1 [4-PPBP]
- BDNF secretion from CCF-STTG1 cells, compound alone [3]: facilitated BDNF secretion
- BDNF secretion from BV-2 cells, compound alone [9]: failed to significantly stimulate the secretion of detectable levels of BDNF
- BDNF signal above DMSO vehicle ([9]; BV-2 cells, P = 0.4): 1.1 ± 0.06 fold
- effect on BDNF mRNA levels ([2]; 10 μM): no effect on BDNF mRNA levels

Compound: OC1(c2ccc(Cl)cc2)CCNCC1 [haloperidol metabolite I, 4-(4-Chlorophenyl)-4-hydroxypiperidine]
- BDNF secretion from CCF-STTG1 cells, compound alone [3]: facilitated BDNF secretion
- BDNF secretion from U87MG cells, compound alone [4]: facilitated BDNF secretion
- Ki ([1]; read-out: affinity (Ki) for the S1R): 128 nM
- fold lower affinity for the S1R than haloperidol and reduced haloperidol [1]: > 75 fold
- effect on BDNF mRNA levels ([2]; 100 μM): no effect on BDNF mRNA levels
